Measurements published in patent US12187707B2, “Pharmaceutical formulations of N-(2-(2-(dimethylamino)ethoxy)-4-methoxy-5-((4-(1-methyl-1H-indol-3-yl)pyrimidin-2-yl)amino)phenyl)acrylaminde and salts thereof” (Beta Pharma, Inc., priority 2017, dated 2025).

Assay: Stability testing of Formulation 1 and 1·Ms by HPLC (assay and total related substances) after storage in a stability chamber
Type: physicochemical
Procedure: Microcrystalline cellulose (392.43 mg), dicalcium phosphate (735.35 mg), sodium starch glycolate (45.09 mg), silicon dioxide (15.03 mg), and magnesium stearate (15.03 mg) were combined and blended with a vortex mixer in the amounts and proportions indicated in Table 1. The resulting mixture was filtered through a #35 mesh sieve to give Mixture A. A 20.05 mg portion of Mixture A was combined with 5.0 mg of 1·Ms (C27H30N6O3·1.06 CH3SO3H, purity=100%) of crystalline Form 2A in a 40 mL glass vial and blended thoroughly with a vortex mixer to afford Formulation 1, which has a theoretical composition as calculated in Table 1.
All samples were stored in a stability chamber at temperatures of −20° C., 50° C., and at 40° C./75% relative humidity for 2-week and 4-week periods and analyzed for stability. Closed-dish samples were capped and sealed with Parafilm. Open-dish samples were covered by aluminum foil that was pierced with a pinhole.
After reaching room temperature, each sample was added to a 40 mL sample vial containing 10 mL of diluent (0.05% TFA in H2O:MeCN=1:1 v/v) and sonicated for 10 minutes with occasional shaking. All samples were centrifuged at 14,000 rpm for 10 minutes and the supernatant was analyzed by HPLC. The working standard solution (5 mg of 1 Ms in 10 mL of diluent) was used as a reference. Results for Formulation 1 are shown in Table 3, in which purity is measured as percent (%) versus total related substances (TRS). As shown in […] and FIGS. 7 to 9, Formulation 1 was stable over an extended period.

[1] = 40° C. @ 75% relative humidity, 2 weeks
[2] = 40° C. @ 75% relative humidity, 4 weeks

Assay [1]: 101.1% | TRS (total related substances) [1]: 0.00% | Assay [2]: 99.3% | TRS (total related substances) [2]: 0.00% | Assay (50° C., 2 weeks): 101.4% | TRS (total related substances) (50° C., 2 weeks): 0.00% | Assay (50° C., 4 weeks): 99.9% | TRS (total related substances) (50° C., 4 weeks): 0.00% | Assay (Initial): 100.2% | TRS (total related substances) (Initial): 0.00%
Compound: C=CC(=O)Nc1cc(Nc2nccc(-c3cn(C)c4ccccc34)n2)c(OC)cc1OCCN(C)C [1 · Ms, N-(2-(2-(Dimethylamino)ethoxy)-4-methoxy-5-((4-(1-methyl-1H-indol-3-yl)pyrimidin-2-yl)amino)phenyl)acrylamide methanesulfonate (1:1)]
